Source: patent US20240389593A1, “HETEROCYCLIC COMPOUND AND USE THEREOF” (KUMIAI CHEMICAL INDUSTRY CO., LTD., priority 2021, published 2024)

Key:
Format in all cases: in vivo
Aphis gossypii = test: Test on pest control effect in Aphis gossypii (cucumber nursery plant dip); settings: 72 h, 500 ppm active ingredient (wettable powder diluted with water), cucumber nursery plants inoculated with larvae dipped, 25° C., 3 days after treatment
Protocol: [Test example 4] Test on pest control effect in Aphis gossypii A wettable powder prepared according to formulation example 2 was diluted with water to a concentration of 500 ppm as the active ingredient. Some nursery plant of cucumber previously inoculated with larvae of Aphis gossypii were dipped in the drug solution and air-dried. The treated nursery plants of cucumber were placed in a room at constant temperature of 25° C. The number of surviving insects was counted at 3 days after the treatment. Mortality rate was calculated using the formula 1. The number of replication was one in each test.

Helicoverpa armigera = test: Test on insecticidal activity in Helicoverpa armigera (cabbage leaf dip); settings: foliar, 144 h, 500 ppm active ingredient (wettable powder diluted with water), cabbage leaves dipped, hatching larvae, 25° C., 6 days after treatment
Protocol: (§1) A wettable powder prepared according to formulation example 2 was diluted with water to a concentration of 500 ppm as the active ingredient. Some cabbage leaves were dipped in the drug solution, air-dried, and then placed in a plastic cup. Five hatching larvae of Helicoverpa armigera were put on the treated leaves, and the cup was covered with a lid. Then, it was placed in a room at constant temperature of 25° C. The number of dead insects was investigated at 6 days after the treatment. Mortality rate was calculated using the formula 1. The number of replication was two in each test.

Plutella xylostella = test: Test on insecticidal activity in Plutella xylostella (cabbage leaf dip); settings: foliar, 144 h, 500 ppm active ingredient (wettable powder diluted with water), cabbage leaves dipped, second-instar larvae, 25° C., 6 days after treatment
Protocol: as §1, with “Ten second-instar” for “Five hatching”, “Plutella xylostella” for “Helicoverpa armigera”, “after” for “after the”, “one” for “two”

Nilaparvata lugens = test: Test on insecticidal activity in Nilaparvata lugens (rice sprout dip); settings: 144 h, 500 ppm active ingredient (wettable powder diluted with water), rice sprouts dipped, second-instar larvae, 25° C., 6 days after treatment
Protocol: A wettable powder prepared according to formulation example 2 was diluted with water to a concentration of 500 ppm as the active ingredient. Some rice sprouts were dipped in the drug solution and placed in a plastic cup. Ten second-instar larvae of Nilaparvata lugens were put on the treated leaves, and the cup was covered with a lid. Then, it was placed in a constant room temperature of 25° C. The number of dead insects was investigated at 6 days after the treatment. Mortality rate was calculated using the formula 1. The number of replication was one in each test.

Measured: mortality at 500 ppm

CCS(=O)(=O)c1c(-n2cc(OCC(F)(F)C(F)(F)C(F)(F)F)cn2)nc2ccc(Br)cn12 [A-0039, 6-bromo-3-(ethylsulfonyl)-2-[4-(2,2,3,3,4,4,4-heptafluorobutoxy)-1H-pyrazol-1-yl] imidazo [1,2-a] pyridine]
≥ 90%: all assays above

CCS(=O)(=O)c1c(-n2cc(OCC(F)(F)C(F)(F)C(F)(F)F)cn2)nc2ccc(C(F)(F)F)cn12 [A-0046, 3-(ethylsulfonyl)-2-[4-(2,2,3,3,4,4,4-heptafluorobutoxy)-1H-pyrazol-1-yl]-6-(trifluoromethyl)imidazo[1,2-a]pyridine]
≥ 90%: all assays above

CCS(=O)(=O)c1c(-n2cc(OCC(F)(F)C(F)(F)C(F)(F)F)cn2)nc2ccc(C3CC3)cn12 [A-0049, 6-cyclopropyl-3-(ethylsulfonyl)-2-[4-(2,2,3,3,4,4,4-heptafluorobutoxy)-1H-pyrazol-1-yl] imidazo [1,2-a] pyridine]
≥ 90%: all assays above
